Assay results from PubChem BioAssay AID1963867 (Molecular Pharmacology Branch, DTP, NCI, 2024).
Where “and” joins values, the source holds several entries; their conditions need not be identical. Equal values may be shown once. Calls of active or inactive are those of the source. The calls were made as follows: active = viability on the fitted dose curve at most 10% of control; inactive = the rest.

System: KRAS-mutant PDC tumor spheroid with HUVEC/MSC, viability
Assay: Anticancer human tumor 327498-153-R-J2-PDC patient-derived uterine carcinosarcoma cell line growth inhibition [KRAS2]
Settings: for viability, T/C: stronger effect = lower value
Excerpt: Multicellular complex tumor spheroid response to RAS pathway inhibitors in combination with a targeted agents in patient-derived cell lines with oncogenic KRAS variants from multiple cancer types
A high-throughput screen of multi-cell type tumor spheroids was designed to identify active combinations of targeted small molecules and KRAS pathway inhibitors. Complex spheroids include a stromal component modeled by human endothelial cells (HUVEC) and fibroblasts modeled by human mesenchymal stem cells (MSCs). The concentration ranges selected for each drug and investigational agent were based upon clinically achievable concentrations if the clinical Cmax of the agent was known.
Compounds. The drugs and investigational agents: BI-3406 (NSC825286), BAY-293 (NSC824723), batoprotafib (TNO155; NSC825523), sotorasib (AMG 510; NSC818433), MRTX1257 (NSC819558), elimusertib (BAY 1895344; NSC800525), molibresib (GSK525762; NSC774829), temuterkib (LY3214996; NSC803410), venetoclax (NSC766270), alisertib (NSC759677), olaparib (NSC753686), talazoparib (NSC767125), erdafitinib (NSC781556), ipatasertib (NSC767898), cabozantinib (NSC761068), nintedanib (NSC756659), abemaciclib (NSC768073), docetaxel (NSC628503), trametinib (NSC758246), and sapanisertib (NSC764658) were obtained from the National Cancer Institute (NCI) Developmental Therapeutics Program Chemical Repository. The FDA-approved anticancer drug set is available from the Developmental Therapeutics Program. […] The stock solutions were prepared in dimethyl sulfoxide (DMSO, Sigma-Aldrich, St. Louis, MO, cat. D2650) at 800-fold the tested concentration and stored at -70 degrees C prior to their use. All drugs and investigational agents were tested over a range starting from a high concentration at or near the clinical Cmax and decreasing in half-log increments. If the clinical Cmax for an agent had not been determined, the highest concentration tested was 10 microM.
Cell Culture. All cells were maintained in an incubator at 37 degrees C and 5% CO2 with 95% humidity. The PDC lines were cultured according to standard operating procedures established by the NCI PDMR (https://pdmr.cancer.gov/sops/default.htm). Briefly, all PDCs were thawed and cultured in Matrigel-coated flasks prepared with a working solution of 1X Ham's F-12 nutrient mix, without supplementation (Invitrogen, Waltham, MA, cat. 11765054), 100 U/mL penicillin-streptomycin (Invitrogen, cat. 15140122), and 2.5% Matrigel (Corning Inc., Corning, NY, cat. 354248) for the first three passages. All PDCs were cultured in complete DMEM/F-12 media containing advanced DMEM/F-12 (Invitrogen, cat. 12634028), 4.9% defined fetal bovine serum, heat inactivated (HyClone Laboratories Inc., Logan, UT, cat. SH30070.03HI), 389 ng/mL hydrocortisone (Sigma-Aldrich, cat. H4001), 9.7 ng/mL human EGF recombinant protein (Invitrogen, cat. PHG0313), 23.4 microg/mL adenine (Sigma-Aldrich, cat. A2786), 97.3 U/mL penicillin-streptomycin (Invitrogen, cat. 15140122), 1.9 mM L-glutamine (Invitrogen, cat. 25030081), and 9.7 microM Y-27632 dihydrochloride (Tocris Bioscience, Bristol, United Kingdom, cat. 1254). The PDCs were cultured in complete DMEM/F12 media without 9.7 microM Y-27632 dihydrochloride for at least two passages prior to the screen. The established cell line HOP-62 was cultured in RPMI 1640 medium, HEPES (Invitrogen, cat. 22400105) with 10% defined fetal bovine serum (HyClone Laboratories Inc., cat. SH30070.03) and 2 mM L-glutamine (Invitrogen, cat. 25030081). The pooled donor HUVEC were cultured in endothelial cell growth medium 2 (PromoCell, Heidelberg, Germany, cat. C-22011) and the hMSC were cultured in mesenchymal stem cell growth medium 2 (PromoCell, cat. C-28009). For all experiments, HUVEC and hMSC were used at passages </=5, while the malignant cell lines were used at passages </=15. […]

[1] = compound alone, run of 07/19/2021
[2] = compound alone, run of 07/26/2021
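For IC50 in this document: spheroids exposed to agents for seven days before reading.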
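For viability, T/C in this document: spheroids exposed to agents for seven days before reading; 100% = DMSO vehicle wells so lower means fewer viable cells.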

SMILES	viability, T/C (compound 0.0001 µM)	viability, T/C (compound 0.000316 µM)	viability, T/C (compound 0.001 µM)	viability, T/C (compound 0.00316 µM)	viability, T/C (compound 0.01 µM)	viability, T/C (compound 0.0316 µM)	IC50 (curve of compound)	viability, T/C (compound 0.1 µM)	viability, T/C (compound 0.316 µM)	viability, T/C (compound 1 µM)	viability, T/C (compound 3.16 µM)	viability, T/C (compound 10 µM)	IC50 [1]	IC50 [2]	outcome (compound 0.316 µM)	IC50 (compound alone, run of 07/12/2021)
CC(=O)Nc1cccc(-n2c(=O)n(C3CC3)c(=O)c3c(Nc4ccc(I)cc4F)n(C)c(=O)c(C)c32)c1	97.2% [middle of 5 runs]	92.1% [middle of 5 runs]	75.5% [middle of 5 runs]	63.5% [middle of 5 runs]	56.3% [middle of 5 runs]	36.9% [middle of 5 runs]	11.7 nM [middle of 5 runs]									
CC(=O)OC12COC1CC(O)C1(C)C(=O)C(O)C3=C(C)C(OC(=O)C(O)C(NC(=O)OC(C)(C)C)c4ccccc4)CC(O)(C(OC(=O)c4ccccc4)C21)C3(C)C (stereo unspecified)					8.03% [middle of 5 runs]	6.44% [middle of 5 runs]	< 0.01 µM	6.83% [middle of 5 runs]	7.35% [middle of 5 runs]	10.6% [middle of 5 runs]	12.8% [middle of 5 runs]					
CC(C)NCC(C(=O)N1CCN(c2ncnc3c2C(C)CC3O)CC1)c1ccc(Cl)cc1 (stereo unspecified)						97.8% [middle of 5 runs]	982 nM [middle of 5 runs]	77.2% [middle of 5 runs]	63.1% [middle of 5 runs]	48.3% [middle of 5 runs]	37.9% [middle of 5 runs]	25.4% [middle of 5 runs]				
CC(C)n1nc(-c2ccc3oc(N)nc3c2)c2c(N)ncnc21		99.8% [middle of 5 runs]	92.1% [middle of 5 runs]	77.7% [middle of 5 runs]	49.9% [middle of 5 runs]	16% [middle of 5 runs]	9.11 nM [middle of 5 runs]	9.59% [middle of 5 runs]								
CC1(C)CCC(CN2CCN(c3ccc(C(=O)NS(=O)(=O)c4ccc(NCC5CCOCC5)c([N+](=O)[O-])c4)c(Oc4cnc5[nH]ccc5c4)c3)CC2)=C(c2ccc(Cl)cc2)C1						101% [middle of 5 runs]	4.81 µM [middle of 5 runs]	98.9% [middle of 5 runs]	99.3% [middle of 5 runs]	97.8% [middle of 5 runs]	74.3% [middle of 5 runs]	15.3% [middle of 5 runs]				
CC1COCCN1c1cc(-c2ccnn2C)c2ccnc(-c3ccn[nH]3)c2n1 (stereo unspecified)								16.4% [middle of 5 runs]	6.37% [middle of 5 runs]	5.03% [middle of 5 runs]	4.84% [middle of 5 runs]					
CC1OCC2(CCN(c3cnc(Sc4ccnc(N)c4Cl)c(N)n3)CC2)C1N (stereo unspecified)						87.3% and 88.9% and 86.3%	1.05 µM [middle of 5 runs]	75.4% [middle of 19 runs]	59.2% [middle of 19 runs]			31.2% [middle of 19 runs]	544 nM [middle of 5 runs]	499 nM [middle of 6 runs]		
CCN1CCN(Cc2ccc(Nc3ncc(F)c(-c4cc(F)c5nc(C)n(C(C)C)c5c4)n3)nc2)CC1				88.7% [middle of 5 runs]	81.7% [middle of 5 runs]	65.9% [middle of 5 runs]	> 1 µM	61% [middle of 5 runs]	59.6% [middle of 5 runs]	58.9% [middle of 5 runs]						
CCNC(=O)CC1N=C(c2ccc(Cl)cc2)c2cc(OC)ccc2-n2c(C)nnc21 (stereo unspecified)						102% [middle of 5 runs]		95.9% [middle of 5 runs]	77.6% [middle of 5 runs]	64.8% [middle of 5 runs]						
CN(C)C/C=C/C(=O)Nc1cc2c(Nc3ccc(F)c(Cl)c3)ncnc2cc1O[C@H]1CCOC1		99.1% [middle of 5 runs]	97% [middle of 5 runs]	95.1% [middle of 5 runs]	104% [middle of 5 runs]	100% [middle of 5 runs]	> 0.1 µM	90.8% [middle of 5 runs]								
CNCc1ccccc1-c1csc(C(C)Nc2nc(C)nc3cc(OC)c(OC)cc23)c1 (stereo unspecified)								85.7% [middle of 17 runs]	77.5% [middle of 17 runs]			1.07% [middle of 17 runs]	1.43 µM [middle of 5 runs]	1.48 µM [middle of 5 runs]		
COC(=O)c1ccc2c(C(=Nc3ccc(N(C)C(=O)CN4CCN(C)CC4)cc3)c3ccccc3)c(O)[nH]c2c1						89.5% [middle of 5 runs]		94.6% [middle of 5 runs]	84.9% [middle of 5 runs]							
COc1cc(Nc2ncc3c(n2)-c2ccc(Cl)cc2C(c2c(F)cccc2OC)=NC3)ccc1C(=O)O						19.4% [middle of 5 runs]	< 0.0316 µM	13.1% [middle of 5 runs]	11.2% [middle of 5 runs]	12.1% [middle of 5 runs]	12.5% [middle of 5 runs]	14.5% [middle of 5 runs]				
COc1cc(OC)cc(N(CCNC(C)C)c2ccc3ncc(-c4cnn(C)c4)nc3c2)c1						73.7% [middle of 5 runs]		71.3% [middle of 5 runs]				0.42% [middle of 5 runs]				
COc1cc2nc(C)nc(NC(C)c3cc(N)cc(C(F)(F)F)c3)c2cc1OC1CCOC1 (stereo unspecified)											65.2% [middle of 17 runs]		> 10 µM and 8.25 µM and 8.16 µM	> 10 µM	inactive	> 10 µM and 9.5 µM
COc1cc2nccc(Oc3ccc(NC(=O)C4(C(=O)Nc5ccc(F)cc5)CC4)cc3)c2cc1OC						95.8% [middle of 5 runs]		94.9% [middle of 5 runs]	97.2% [middle of 5 runs]							
Cn1nccc1Nc1nccc(-c2cc3c(s2)C(C)(C)N(CCN2CCOCC2)C3=O)n1						101% [middle of 5 runs]	5.75 µM [middle of 5 runs]	96.8% [middle of 5 runs]	79.2% [middle of 5 runs]	69.1% [middle of 5 runs]	57.6% [middle of 5 runs]	43.9% [middle of 5 runs]				
Cn1ncnc1[C@H]1c2n[nH]c(=O)c3cc(F)cc(c23)N[C@@H]1c1ccc(F)cc1		103% [middle of 5 runs]	99% [middle of 5 runs]	94.2% [middle of 5 runs]	81.5% [middle of 5 runs]	42.4% [middle of 5 runs]	25.3 nM [middle of 5 runs]	22.4% [middle of 5 runs]								
O=C(c1cc(Cc2n[nH]c(=O)c3ccccc23)ccc1F)N1CCN(C(=O)C2CC2)CC1						108% [middle of 5 runs]	2.58 µM [middle of 5 runs]	99.3% [middle of 5 runs]	93% [middle of 5 runs]	81.6% [middle of 5 runs]	41.5% [middle of 5 runs]	18.4% [middle of 5 runs]				
